Results as given in ChEMBL document CHEMBL3507680, “University of Dundee, Gates Library screen for HepG2 cell viability”.

Assay: Human HepG2 cell viability assay in 384 well format
Format: toxicity, cell-based
Set-up: dose 125 nL, time 70.5 hour; concentration not given beside the values
Settings: HepG2 cells, read-out: Inhibition

Compound | cytotoxicity at 70.5 h [%]
CN1CCOC(CNC(=O)Cc2coc(-c3ccccc3)n2)C1 (centres undefined) | -13.1
OC(CN1CCC(c2ccn[nH]2)CC1)c1ccc(F)cc1F (centres undefined) | -5.74
CN(Cc1ccncc1)C(=O)NCc1nnc2n1CCCCC2 | 22.9
CN(Cc1ccc(O)cc1)C(=O)NCc1nnc2n1CCCCC2 | -2.24
CCN(CC1CCCO1)C(=O)Nc1ccc(OC)c(C)c1 (centres undefined) | -8.02
O=C(c1ccc(-n2cnnn2)cc1)N1CCCC(n2ccnc2)C1 (centres undefined) | -6.98
CC(C)c1n[nH]c(C(=O)Nc2ccccn2)c1Br | 12.4
CN(Cc1ccc(N(C)C)cc1)C(=O)NCc1nnc2n1CCC2 | -5.5
Cc1cccc(NC2CCN(C(=O)Nc3ccc(F)c(F)c3)CC2)n1 | -4.64
Cc1cnn(CC2CCCN2C(=O)c2cccc(S(C)(=O)=O)c2)c1 (centres undefined) | -2.98
Cc1cnn(CC2CCCN2C(=O)c2cccc(-n3ccc(C)n3)c2)c1 (centres undefined) | -7.87
Cc1cccc(NC2CCN(C(=O)Nc3ccccn3)CC2)n1 | 2.1
CCN1CCOC(CNCc2cccc(OCc3ccccn3)c2)C1 (centres undefined) | -6.84
O=C(CCc1cccc(F)c1F)N1CCCC(n2cncn2)C1 (centres undefined) | -6.22
CN(Cc1ccc(F)cc1)C(=O)NCc1nnc2n1CCC2 | -10.4
Cc1nccn1CC1CCCN1S(=O)(=O)Cc1cccc(F)c1 (centres undefined) | 18.7
Fc1cccc(-c2nc(CN3CCCC3Cn3cncn3)co2)c1 (centres undefined) | 8.65
Cc1nccn1CC1CCCN1S(=O)(=O)Cc1cccc(C#N)c1 (centres undefined) | 29.1
Fc1ccc(-c2nc(CN3CCCC3Cn3cncn3)co2)cc1 (centres undefined) | 17.6
CC(C)(C)c1nc(CN2CCC(c3ccnn3CCO)CC2)no1 | -0.084
c1ccc(-c2cnc(CN3CCCC3Cn3cccn3)o2)cc1 (centres undefined) | 1.69

Compound | cytotoxicity at 70.5 h [%]
COc1ccc(-c2cnc(CN3CCCC3Cn3cccn3)o2)cc1 (centres undefined) | -7.48
Cc1nc(C2CCCN(C(=O)c3c[nH]c(C(C)C)n3)C2)no1 (centres undefined) | -2.72
c1ccc(-c2nc(CN3CCCCC3Cn3cncn3)co2)cc1 (centres undefined) | -0.916
NC(=O)C1CCN(C(=O)CCCc2nnc(-c3ccccc3)o2)CC1 | -10.4
Cc1cc(CN2CCN(C(=O)NCc3ccc(C)s3)CC2)on1 | -2.93
CCc1noc(CN2CCC(c3ccnn3CCO)CC2)n1 | -5.37
CC(C)c1noc(CN2CCC(c3ccnn3CCO)CC2)n1 | -3.73
O=C(CCCc1nnc(-c2ccccc2)o1)N1CCN(C2CC2)CC1 | 0.0439
COc1ccccc1CNC(=O)N1CCN(Cc2cc(C)on2)CC1 | -2.55
NC(=O)C1CCN(C(=O)CCCc2nnc(-c3ccccc3)o2)C1 (centres undefined) | -0.453
c1ccc(-c2nc(CN3CCCC3Cn3cncn3)co2)cc1 (centres undefined) | -7.46
Clc1ccc(-c2nc(CN3CCCC3Cn3cncn3)co2)cc1 (centres undefined) | -1.1
Cc1ccc(-c2nc(CN3CCCC3Cn3cncn3)co2)cc1 (centres undefined) | 1.81
CC(O)CN1CCN(C(=O)c2cccn2Cc2ccccc2)CC1 (centres undefined) | -1.63
O=C(CCCc1nc(-c2ccccc2)no1)N1CCN(CCO)CC1 | 17.6
CCC(O)CN1CCN(C(=O)c2cccc(CC#N)c2)CC1 (centres undefined) | 1.07
CN(C)c1ncccc1CNC(=O)N1CCCC1CN1CCCC1 (centres undefined) | 24.9
COc1ccc(-c2nc(CN3CCc4cnc(C)nc4C3)no2)cc1 | -6.23
COCCc1noc(CN(C)C2CCCN(c3cccnn3)C2)n1 (centres undefined) | 22.9
CC(C)c1ncc2c(n1)CN(Cc1noc(-c3ccccc3)n1)CC2 | 0.861
CC(NC(=O)c1cccs1)C(=O)NCc1ccccn1 (centres undefined) | -2.68

Compound | cytotoxicity at 70.5 h [%]
CCn1cnnc1CNC(=O)NC(c1cccs1)C1CCCC1 (centres undefined) | 19.6
COc1ncccc1CNC(=O)N1CCCC1c1ccsc1 (centres undefined) | -0.312
Cc1ncsc1C(=O)NC1CCN(CCC#N)CC1 | 16.5
O=C(NCc1cccnc1N1CCCCC1)c1cccs1 | -3.28
Cc1ncsc1C(=O)NC1CCN(CCCC#N)CC1 | -1.22
Cc1cc(NC(=O)CN2CCc3cncnc3C2)on1 | 3.49
Cc1nc(C)n(CC2CCCN2CC(=O)NC2CCOCC2)n1 (centres undefined) | 2.61
CCc1nnc(CN2CCN(CC(O)c3ccccc3)CC2)o1 (centres undefined) | -1.5
Cc1cc(C)n(CC2CCCCN2CC(=O)NC2CCOCC2)n1 (centres undefined) | 18.3
O=C(c1cc2ccccc2[nH]1)N1CCCCC1Cn1cccn1 (centres undefined) | -1.58
Cc1cc(C)n(C2CN(CC(O)c3ccc(C(F)(F)F)cc3)C2)n1 (centres undefined) | -4.01
Cc1ncsc1C(=O)NC1CCN(Cc2ccc(C(F)(F)F)cc2)CC1 | 26.5
CCOCC(O)CN1CCN(C(=O)c2ccc(N(C)C)nn2)CC1 (centres undefined) | 24.3
CC(c1c(F)cccc1F)N1CCN(Cc2nccn2C)CC1 (centres undefined) | 24.5
Cn1c(C2CC2)nc2c1CCN(CC(=O)Nc1ccncc1)C2 | 4.27
O=C1NCCN1C1CCCN(Cc2coc(-c3ccc(F)cc3)n2)C1 (centres undefined) | 31
Cc1cnn(CC2CN(Cc3nccn3C)CCO2)c1 (centres undefined) | -10.6
Cc1nnc2n1CCN(Cc1csc(-c3ccc(F)cc3)n1)C2 | -12.1
c1ccc2oc(N3CCCCC3Cn3cncn3)nc2c1 (centres undefined) | 25.6
Cc1ccc(NC2CCN(C(=O)CCc3ccco3)CC2)nn1 | -9.84
CC(C)c1ncc2c(n1)CN(Cc1nc(-c3ccoc3)no1)CC2 | -16.7

Compound | cytotoxicity at 70.5 h [%]
O=C(CN1CC(n2cccn2)C1)NCCCc1ccccc1 | -8.01
CC(=O)Nc1nc(CN2CCn3c(nnc3C3CC3)C2)cs1 | -7.7
CC1CN(CC(=O)Nc2cccnc2)CCN1c1nccs1 (centres undefined) | -12.4
Cc1cc(NC(=O)CN2CCN(c3nccs3)C(C)C2)n(C)n1 (centres undefined) | -7.64
Cc1nc(C)n(CC2CCCN(CCOc3cccc(C#N)c3)C2)n1 (centres undefined) | 40.4
COc1ccccc1N1CCC(CNCc2cccc(C#N)c2)C1 (centres undefined) | 35.6
CC(C)c1nc(C2CCCN(C(=O)CCn3ccnc3)C2)no1 (centres undefined) | 13.6
Cc1noc(CN(Cc2ccc3c(c2)OCO3)Cc2ccc(C)o2)n1 | -15.7
COc1ccccc1C1(C(=O)NCCN2CCOCC2)CCOCC1 | -17.1
Cc1cnn(C2CCCN(C(=O)CCc3nccs3)C2)c1 (centres undefined) | 17.1
CSC(C)C(=O)N1CCCN(Cc2cnn(C(C)C)c2)CC1 (centres undefined) | -12
Cc1cnn(C2CCCN(C(=O)CCCNc3ncccn3)C2)c1 (centres undefined) | -14.5
Cc1ccc(N2CCCN(C(=O)CC3CCCO3)CC2)nn1 (centres undefined) | -18.7
COc1ccccc1N1CCC(CNCc2cccc(OC)c2OC)C1 (centres undefined) | 13.4
CC(C)c1nc(C2CCCN(C(=O)CCCn3cncn3)C2)no1 (centres undefined) | -16
Cc1nnc(CN2CCC(N(C)Cc3nnc(C4CC4)n3C)C2)o1 (centres undefined) | -21.8
Cc1cnn(CC2CCCCN2Cc2nnc(-c3ccco3)o2)c1 (centres undefined) | -4.33
Cc1nn(CC(C)C)c(N(C)C)c1CNCc1cccnc1N(C)C | -13.5
CC(C(=O)Nc1ccc(N2CCCC2)nc1)n1cncn1 (centres undefined) | -12.1
Cn1cnc(S(=O)(=O)NCCCN2CCOCC2)c1Cl | -14.4
Cn1cnc(S(=O)(=O)NCCCN2CCCCCC2)c1Cl | -6.45
